In publication PMC10629583, “Specific inhibition of an anticancer target, polo-like kinase 1, by allosterically dismantling its mechanism of substrate recognition” (Proceedings of the National Academy of Sciences of the …, 2023):

Experiments:
L363 cells = experiment: MTS cell viability assay, L363 cells; type: cell-based; conditions: 48 h treatment
[1] = Conversion of Allopole to Allopole-A in buffers ± GSH (LC-MS); type: physicochemical; conditions: room temperature, 1 h; for Compounds detected / Compounds detected, % of total / Compounds detected, pk area: 100 µM Allopole
Protocol: High-performance liquid chromatography (HPLC)/high-resolution mass spectrometry was used to determine the products derived from investigational drugs incubated under various conditions by measuring their exact masses. Thereafter, 20 μL aliquots of several drug preparations in either DMSO or aqueous reaction solutions were diluted 2:1 in ethanol, followed by centrifugation at 15,000 × g for 5 min. The supernatant was then injected on a Thermo Vanquish liquid chromatograph coupled to a Thermo Q Exactive Orbitrap mass spectrometer (Thermo Fisher Scientific). The conditions for the analysis are listed as follows.
The analytes were identified using the Dmass between the predicted and measured exact monoisotopic mass for the protonated molecular ions applied to the empirical formula algorithm in the Qual Browser application of the Xcalibur software (Themo Scientific). Selected ions from the base peak chromatogram were extracted for integration of peak areas. The relative amounts of each analyte to the sum total were calculated to estimate conversion of and prodrug under the specific conditions to breakdown products.
Table S2. Conversion of Allopole to Allopole-A under various buffer conditions, room
Buffers* Compounds detected
Allopole-A Allopole-A (-S) Allopole (-Cl) Allopole
* Buffer #1: 20 mM Tris (pH 8.0), 50 mM NaCl, 1 mM EDTA, 1% DMSO
Buffer #2: 1 x PBS (pH 7.4), 1 mM EDTA, 1% DMSO
Buffer #3: 20 mM HEPES (pH 7.0), 50 mM NaCl, 1 mM EDTA, 1% DMSO
Samples were prepared by incubating 100 µM of Allopole in the indicated buffer conditions in the
absence or presence of 5 mM GSH for 1 h at room temperature. Note that in the absence of GSH,

5-HT1A = target: T1, 5-HT1A (Homo sapiens, UniProt P08908); experiment: PDSP off-target binding screen; conditions: for inhibition at 10 µM: read-out: Primary screen AVE(%inhib)±SD; for Ki: read-out: Secondary screen Ki
T1 construct: NIMH Psychoactive Drug Screening Program (UNC)
T1 sequence (P08908 1-422): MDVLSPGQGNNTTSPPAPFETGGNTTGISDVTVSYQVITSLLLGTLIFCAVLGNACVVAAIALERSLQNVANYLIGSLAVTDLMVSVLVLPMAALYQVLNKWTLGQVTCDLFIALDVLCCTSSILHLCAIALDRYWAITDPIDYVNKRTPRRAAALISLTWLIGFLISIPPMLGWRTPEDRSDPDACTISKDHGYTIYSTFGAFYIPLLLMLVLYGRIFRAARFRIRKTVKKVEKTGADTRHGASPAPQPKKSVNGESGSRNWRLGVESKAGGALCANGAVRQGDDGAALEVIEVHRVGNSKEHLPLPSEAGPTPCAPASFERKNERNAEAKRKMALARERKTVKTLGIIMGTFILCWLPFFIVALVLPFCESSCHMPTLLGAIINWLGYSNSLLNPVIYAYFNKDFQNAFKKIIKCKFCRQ
Description: (§1) PDSP no. Compound Interactions (Ki, µM)
(§2) 60477 Allopole-A None observed.
(§3) trigger a secondary screen at that receptor.

M4 = target: T2, M4 (Homo sapiens, UniProt P08173); experiment: PDSP off-target binding screen; conditions: for inhibition at 10 µM: read-out: Primary screen AVE(%inhib)±SD; for Ki: read-out: Secondary screen Ki
T2 sequence (P08173 1-479): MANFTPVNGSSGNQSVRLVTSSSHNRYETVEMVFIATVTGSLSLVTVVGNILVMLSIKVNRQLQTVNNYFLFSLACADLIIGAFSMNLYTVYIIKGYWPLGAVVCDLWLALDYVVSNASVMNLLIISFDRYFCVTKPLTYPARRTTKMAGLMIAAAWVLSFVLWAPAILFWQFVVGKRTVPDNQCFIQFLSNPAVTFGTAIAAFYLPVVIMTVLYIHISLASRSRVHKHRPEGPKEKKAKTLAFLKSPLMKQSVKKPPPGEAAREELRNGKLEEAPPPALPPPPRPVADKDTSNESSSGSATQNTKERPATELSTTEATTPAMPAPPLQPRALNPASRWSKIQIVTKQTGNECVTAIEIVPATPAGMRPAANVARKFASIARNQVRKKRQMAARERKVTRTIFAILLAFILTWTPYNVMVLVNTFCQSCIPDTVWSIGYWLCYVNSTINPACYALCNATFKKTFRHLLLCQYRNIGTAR
Description: as §1, §2, §3

5-HT2A = 5-HT2A (Homo sapiens, UniProt P28223); experiment: PDSP off-target binding screen; conditions: for inhibition at 10 µM: read-out: Primary screen AVE(%inhib)±SD
Sequence of 5-HT2A (P28223 whole entry): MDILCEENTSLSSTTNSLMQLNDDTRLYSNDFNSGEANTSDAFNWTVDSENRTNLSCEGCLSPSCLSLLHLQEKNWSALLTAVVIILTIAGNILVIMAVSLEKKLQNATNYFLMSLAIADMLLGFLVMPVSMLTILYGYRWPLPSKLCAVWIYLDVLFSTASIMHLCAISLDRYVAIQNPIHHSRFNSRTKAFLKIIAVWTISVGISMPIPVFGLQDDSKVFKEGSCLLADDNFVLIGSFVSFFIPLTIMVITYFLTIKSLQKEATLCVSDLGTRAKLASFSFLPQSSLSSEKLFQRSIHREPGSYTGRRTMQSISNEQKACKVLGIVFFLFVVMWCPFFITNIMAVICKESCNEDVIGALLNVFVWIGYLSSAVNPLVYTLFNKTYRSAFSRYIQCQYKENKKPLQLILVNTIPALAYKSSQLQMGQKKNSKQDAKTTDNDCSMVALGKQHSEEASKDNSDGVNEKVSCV

5-HT2B = 5-HT2B (Homo sapiens, UniProt P41595); experiment: PDSP off-target binding screen; conditions: for inhibition at 10 µM: read-out: Primary screen AVE(%inhib)±SD
Sequence of 5-HT2B (P41595 whole entry): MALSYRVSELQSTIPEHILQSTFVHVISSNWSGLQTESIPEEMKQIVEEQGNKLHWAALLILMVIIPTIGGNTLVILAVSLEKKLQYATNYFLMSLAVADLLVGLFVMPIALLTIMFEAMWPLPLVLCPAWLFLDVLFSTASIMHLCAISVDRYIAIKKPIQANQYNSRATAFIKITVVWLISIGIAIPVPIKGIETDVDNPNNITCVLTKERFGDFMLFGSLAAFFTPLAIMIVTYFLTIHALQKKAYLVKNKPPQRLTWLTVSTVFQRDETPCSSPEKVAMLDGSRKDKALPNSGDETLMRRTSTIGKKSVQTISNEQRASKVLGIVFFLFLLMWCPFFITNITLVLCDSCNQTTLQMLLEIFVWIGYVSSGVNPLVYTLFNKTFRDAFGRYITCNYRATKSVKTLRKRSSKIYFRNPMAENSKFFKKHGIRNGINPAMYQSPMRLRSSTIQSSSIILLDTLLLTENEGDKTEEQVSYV

[2] = tested on: U2OS cells expressing Pendo-mGFP-Plk1 F559D; experiment: MTS proliferation assay, U2OS Plk1 RNAi cells expressing Plk1 F559D; type: cell-based; conditions: 3 to 6 μM, 36 h
Protocol: Cell viability was determined using the […] CellTiter 96® AQueous One Solution Cell Proliferation Assay (MTS) kit (Promega) containing a tetrazolium compound [3-(4,5-dimethylthiazol-2-yl)-5-(3-carboxymethoxy-phenyl)-2-(4-sulfophenyl)-2H-tetrazolium, inner salt (MTS)] and an electron-coupling phenazine ethosulfate. For the MTS assays in Fig. 1B, L363 cells cultured in a 96-well plate were treated with the indicated compounds for 48 h (the final volume of 100 μL). After the compound treatment, cells were additionally treated with 20 μL of the MTS solution and incubated at 37 °C for 2 to 4 h in a humidified 5% CO2 atmosphere. The absorbance of the resulting sample was measured at 490 nm using a PerkinElmer EnSpire Multimode 96-well plate reader. For the MTS assays in Fig. 4E, U2OS cells stably expressing either Pendo-mGFP-Plk1 WT or F559D were seeded at approximately 5,000 cells/well in a 96-well plate, depleted of endogenous Plk1 by RNAi, and then treated with either control DMSO or Allopole as indicated in the schematic diagram in SI Appendix, Fig. S4E.

[3] = Buffer #1 (20 mM Tris pH 8.0), no GSH
[4] = Buffer #2 (1 x PBS pH 7.4), no GSH
[5] = Buffer #3 (20 mM HEPES pH 7.0), no GSH

Structure (SMILES) | Compounds detected [1, 3] [µmol/L] | Compounds detected, % of total [1, 3] [%] | Compounds detected, pk area [1, 3] | Compounds detected ([1]; Buffer #1 + 5 mM GSH) [µmol/L] | Compounds detected, % of total ([1]; Buffer #1 + 5 mM GSH) [%] | Compounds detected, pk area ([1]; Buffer #1 + 5 mM GSH) | Compounds detected [1, 4] [µmol/L] | Compounds detected, % of total [1, 4] [%] | Compounds detected, pk area [1, 4] | Compounds detected ([1]; Buffer #2 + 5 mM GSH) [µmol/L] | Compounds detected, % of total ([1]; Buffer #2 + 5 mM GSH) [%] | Compounds detected, pk area ([1]; Buffer #2 + 5 mM GSH) | Compounds detected [1, 5] [µmol/L] | Compounds detected, % of total [1, 5] [%] | Compounds detected, pk area [1, 5] | Compounds detected ([1]; Buffer #3 + 5 mM GSH) [µmol/L] | Compounds detected, % of total ([1]; Buffer #3 + 5 mM GSH) [%] | Compounds detected, pk area ([1]; Buffer #3 + 5 mM GSH) | inhibition at 10 µM (5-HT1A) [%] | Ki (5-HT1A) [µM] | further results
O=c1c2sc(Cl)cc2n2c(=S)[nH]nc2n1CC1CC1 [Allopole-A] | 1.3 | 1.3 | 9.61E+06 | 95.4 | 95.4 | 1.38E+09 | 0.8 | 0.8 | 4.90E+06 | 77.9 | 77.9 | 5.81E+08 | 1.9 | 1.9 | 1.56E+06 | 66.9 | 66.9 | 1.89E+08 | -20 ± 27.4 | > 10 | Cell efficacy (GI50) Mean ± SD (L363 cells): failed to induce any significant antiproliferation effect; Cell efficacy (GI50) Mean ± SD (L363 cells; listed as 19): N. S.; inhibition at 10 µM (M4): -8.8 ± 4.8%; Ki (M4): > 10 µM; Ki (5-HT2A): > 10 µM; inhibition at 10 µM (5-HT2A): 37 ± 10.4%; Ki (5-HT2B): > 10 µM; inhibition at 10 µM (5-HT2B): -17.7 ± 11.2%
Cn1cnc([N+](=O)[O-])c1Sc1nnc2n(CC3CC3)c(=O)c3sc(Cl)cc3n12 [Allopole] | 97.9 | 97.9 | 7.45E+08 | 0.1 | 0.1 | 8.76E+05 | 97.6 | 97.6 | 6.28E+08 | 0.0 | 0.0 | 2.41E+03 | 93.1 | 93.1 | 7.80E+07 | 0.0 | 0.0 | 9.35E+04 | -12.8 ± 19.7 | > 10 | GI50 (L363 cells; Homo sapiens, L-363, 48 h, read-out: Cell efficacy (GI50) Mean ± SD): 4.1 µM; Proliferation (in words) [2]: uninhibited proliferation; Unmasking of the prodrug by GSH (in words) ([1]; 5 mM GSH): completely unmask; Stability in buffer (in words) ([1]; absence of GSH): remains stable; inhibition at 10 µM (M4): -8.7 ± 9.5%; Ki (M4): > 10 µM; Ki (5-HT2A): 9.2 µM; inhibition at 10 µM (5-HT2A): 52.4 ± 11.8%; Ki (5-HT2B): > 10 µM; inhibition at 10 µM (5-HT2B): -0.5 ± 5%
